Reference: patent US8575091B1, “Amylin analogues and pharmaceutical compositions thereof” (Novo Nordisk A/S, priority 2012, dated 2013)
Numbered stars: 1 amine (or outer) side, 2 acyl side, 3 side chain; on linkers, the order of the positions; unused ones are H or OH. Bridge positions count the residues as written; N and C are the ends. Side chains are listed from the residue outwards. Peptide text beside a SMILES is read from it. * marks the point of attachment. C20 diacid = O=C(O)CCCCCCCCCCCCCCCCCCC(=O)*; γGlu = O=C(O)[C@H](CCC(=O)[*:2])N[*:1]

Key:
[1] = target: T1, human calcitonin receptor (Homo sapiens, UniProt P30988); assay: Assay (VII) binding to the human calcitonin receptor (SPA, 125I-Calcitonin); conditions: read-out: hCTR bind IC50;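 also: cell membranes coupled to SPA beads, competitive displacement read by scintillation counting, IC50 derived from a one-site competition fit as a measure of receptor affinity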
T1 construct: expressed in transfected cells
T1 sequence (P30988 25-474): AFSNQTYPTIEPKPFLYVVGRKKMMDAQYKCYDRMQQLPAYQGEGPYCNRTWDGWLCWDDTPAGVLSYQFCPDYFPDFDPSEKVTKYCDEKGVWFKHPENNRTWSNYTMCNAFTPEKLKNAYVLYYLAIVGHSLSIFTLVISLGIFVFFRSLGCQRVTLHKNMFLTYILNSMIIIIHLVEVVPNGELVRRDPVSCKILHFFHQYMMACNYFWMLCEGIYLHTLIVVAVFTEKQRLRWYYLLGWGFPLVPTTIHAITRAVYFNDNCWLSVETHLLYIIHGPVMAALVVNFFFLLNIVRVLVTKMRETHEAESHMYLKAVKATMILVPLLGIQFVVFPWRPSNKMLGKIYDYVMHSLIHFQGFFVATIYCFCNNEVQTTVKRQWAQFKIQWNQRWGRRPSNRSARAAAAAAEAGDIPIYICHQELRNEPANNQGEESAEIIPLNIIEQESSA

[2] = tested on: Wistar rats; assay: Assay (XII) single subcutaneous administration, plasma calcium in rats; format: in vivo, rat; conditions: for Plasma calcium red (%) 0-12 h: single s.c., maximal reduction 0-12 h, compared to vehicle; for suppression of plasma calcium level relative to vehicle: single subcutaneous, over 24 hours
Experimental: Assay (XII)—Effect from Single Subcutaneous Administration of Analogue on Plasma Calcium in Rats
Male Wistar rats (Taconic Europe, ˜250 g at test date) were acclimatized to handling prior to the study. Rats were divided in groups of five and subcutaneously dosed with test compound at time=0. At time T=−15 min; 1 h, 2 h, 4 h, 7 h, 12 h, and 24 h a blood sample was obtained and heparin stabilized plasma was analysed for total calcium (Cobas, Hitachi). Data are illustrated in graphs as mean±SEM.

[3] = target: T2, human amylin receptor (amylin 3(a) receptor: human calcitonin receptor + RAMP-3) (Homo sapiens, UniProt O60896+P30988); assay: Assay (II)a functional assay, human amylin receptor (CRE luciferase, BHK cells); format: cell-based; conditions: for EC50: functional assay, human amylin receptor, read-out: hAmylin-R funct. EC50
T2 construct: expressed in transfected cells
T2 sequence (P30988 25-474): T1 sequence (P30988 25-474)
T2 sequence (O60896 24-148 partner): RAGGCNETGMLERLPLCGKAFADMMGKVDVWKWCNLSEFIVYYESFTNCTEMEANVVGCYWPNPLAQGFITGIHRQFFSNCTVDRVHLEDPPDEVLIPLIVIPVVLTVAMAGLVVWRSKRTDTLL

[4] = target: T1, human calcitonin receptor; assay: Assay (II)a functional assay, human calcitonin receptor (CRE luciferase, BHK cells);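 also: luminescence from a CRE-driven luciferase reporter, read by single photon counting after cells were exposed to test samples for 3 h at 37 °C under 5% CO2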; format: cell-based; conditions: read-out: hCTR funct. EC50
[5] = target: T3, human amylin receptor (Homo sapiens, UniProt O60896+P30988); assay: Assay (V) binding to the human amylin receptor (SPA, 125I-rat amylin); conditions: human amylin receptor membranes, SPA; read-out: hAmylin-R bind IC50
T3 construct: expressed in transfected cells
T3 sequence (P30988 25-474): T1 sequence (P30988 25-474)
T3 sequence (O60896 24-148 partner): T2 sequence (O60896 24-148 partner)
In short: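 SPA competition binding on membranes from Amylin 3(a)/CRE-luc cells, 35 ng/μL membranes with 0.05 mg/well beads. Buffer 50 mM Hepes pH 7.4, 1 mM CaCl2, 5 mM MgCl2, 0.1% OA, 0.02% Tween20. IC50 from one-site competition fit as affinity measure.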

[6] = tested on: Sprague-Dawley rats; assay: Assay (XI) single subcutaneous administration, food intake monitored for 48 hours in rats; format: in vivo, rat; conditions: single subcutaneous 30 nmol/kg
Experimental: Assay (XI)—Effect from Single Subcutaneous Administration of Analogue on […] in Rats
Male Sprague-Dawley rats (Taconic Europe, ˜250 g at test date) were acclimatized to reversed day light cycle (lights on from 10 PM to 10 AM) and single housing in online food intake monitoring system (Ellegaard MBRose, Denmark) prior to study start. Rats were divided in groups of five and subcutaneously dosed with test compound (30 nmol/kg) and food intake was monitored for 48 hours hereafter. Data are illustrated in graphs as mean±SEM.

[7] = Table 6, human functional selectivity (hCTR EC50 / hAmylin-R EC50)
[8] = Table 6a, human functional selectivity (hCTR EC50 / hAmylin-R EC50), at least 5
[9] = Table 6i, hCTR funct. EC50 / hAmylin-R funct. EC50
[10] = Table 6j, hCTR funct. EC50 / hAmylin-R funct. EC50
[11] = Table 6k, hCTR funct. EC50 / hAmylin-R funct. EC50

Structure (SMILES)	IC50 [1] [nM]	Plasma calcium red (%) 0-12 h ([2]; 30 nmol/kg) [%]	suppression of plasma calcium level relative to vehicle ([2]; increasing doses (all doses tested))	EC50 [3] [nM]	EC50 [4] [nM]	IC50 [5] [nM]	food intake monitored over 48 hours versus vehicle [6]	Plasma calcium red (%) 0-12 h ([2]; 3 nmol/kg) [%]	suppression of plasma calcium level relative to vehicle ([2]; 3 nmol/kg)	suppression of plasma calcium level relative to vehicle ([2]; 30 nmol/kg)	suppression of plasma calcium level relative to vehicle ([2]; 100 and 300 nmol/kg)	Ratio hCT/hAmylin funct. [3, 7]	Ratio hCT/hAmylin funct. [3, 8]	Ratio hCT/hAmylin funct. [3, 9]	Ratio hCT/hAmylin funct. [3, 10]	Ratio hCT/hAmylin funct. [3, 11]
CC[C@H](C)[C@H](NC(=O)[C@H](C)NC(=O)CNC(=O)[C@H](Cc1ccccc1)NC(=O)[C@H](CC(N)=O)NC(=O)[C@@H]1CCCN1C(=O)[C@H](CO)NC(=O)[C@H](CO)NC(=O)[C@H](Cc1c[nH]cn1)NC(=O)[C@H](CCCNC(=N)N)NC(=O)[C@H](CC(C)C)NC(=O)[C@H](Cc1ccccc1)NC(=O)[C@H](CC(=O)O)NC(=O)[C@H](C)NC(=O)[C@H](CC(C)C)NC(=O)[C@H](CCCNC(=N)N)NC(=O)[C@H](CCC(N)=O)NC(=O)[C@@H](NC(=O)[C@H](C)NC(=O)[C@@H]1CSSC[C@H](NC(=O)[C@@H](N)CCCCNC(=O)CC[C@H](NC(=O)CC[C@H](NC(=O)CCCCCCCCCCCCCCCCCCC(=O)O)C(=O)O)C(=O)O)C(=O)N[C@@H](CC(N)=O)C(=O)N[C@@H]([C@@H](C)O)C(=O)N[C@@H](C)C(=O)N[C@@H]([C@@H](C)O)C(=O)N1)[C@@H](C)O)C(=O)N1CCC[C@H]1C(=O)N[C@@H](CO)C(=O)N[C@@H](CO)C(=O)N[C@H](C(=O)N[C@@H](CC(N)=O)C(=O)N[C@H](C(=O)NCC(=O)N[C@@H](CO)C(=O)N[C@@H](CCCNC(=N)N)C(=O)N[C@H](C(=O)N[C@@H](Cc1ccc(O)cc1)C(N)=O)[C@@H](C)O)C(C)C)[C@@H](C)O [Example 52, N-ε-1-{(S)-4-carboxy-4-[(S)-4-carboxy-4-(19-carboxynonadecanoylamino)butyrylamino]butyryl}-[Asp14,Arg17,Pro21,Pro27,Arg35]-human amylin]	56.9	12	None of the doses trigger a notable suppression of the calcium level	0.34	14.1	0.697	reduces food intake in rats									
CC[C@H](C)[C@H](NC(=O)[C@H](C)NC(=O)CNC(=O)[C@H](Cc1ccccc1)NC(=O)[C@H](CC(N)=O)NC(=O)[C@@H]1CCCN1C(=O)[C@H](CO)NC(=O)[C@H](CO)NC(=O)[C@H](Cc1c[nH]cn1)NC(=O)[C@H](CCCNC(=N)N)NC(=O)[C@H](CC(C)C)NC(=O)[C@H](Cc1ccccc1)NC(=O)[C@H](CCC(=O)O)NC(=O)[C@H](C)NC(=O)[C@H](CC(C)C)NC(=O)[C@H](CCCNC(=N)N)NC(=O)[C@H](CCC(N)=O)NC(=O)[C@@H](NC(=O)[C@H](C)NC(=O)[C@@H]1CSSC[C@H](NC(=O)[C@@H](N)CCCCNC(=O)CC[C@H](NC(=O)CCCCCCCCCCCCCCCCCCC(=O)O)C(=O)O)C(=O)N[C@@H](CC(N)=O)C(=O)N[C@@H]([C@@H](C)O)C(=O)N[C@@H](C)C(=O)N[C@@H]([C@@H](C)O)C(=O)N1)[C@@H](C)O)C(=O)N1CCC[C@H]1C(=O)N[C@@H](CO)C(=O)N[C@@H](CO)C(=O)N[C@H](C(=O)N[C@@H](CC(N)=O)C(=O)N[C@H](C(=O)NCC(=O)N1CCC[C@H]1C(=O)N[C@@H](CCC(=O)O)C(=O)N[C@H](C(=O)N[C@@H](Cc1ccc(O)cc1)C(N)=O)[C@@H](C)O)C(C)C)[C@@H](C)O [Example 109] (H-K([γGlu-C20 diacid])CNTATCATQRLAEFLRHSSPNFGAIPSSTNVGPETY-NH2; disulfide 2-7)	1.86	27		0.161	0.841	0.14	reduces food intake in rats	7	does not trigger a notable suppression of the calcium level	minor suppression of the calcium level	more pronounced suppression of the calcium level	5.2	5.2	5.2	5.2	5.2
CC[C@H](C)[C@H](NC(=O)[C@H](C)NC(=O)CNC(=O)[C@H](Cc1ccccc1)NC(=O)[C@H](CC(N)=O)NC(=O)[C@@H]1CCCN1C(=O)[C@H](CO)NC(=O)[C@H](CO)NC(=O)[C@H](Cc1c[nH]cn1)NC(=O)[C@H](CCCNC(=N)N)NC(=O)[C@H](CC(C)C)NC(=O)[C@H](Cc1ccccc1)NC(=O)[C@H](CCC(=O)O)NC(=O)[C@H](C)NC(=O)[C@H](CC(C)C)NC(=O)[C@H](CCCNC(=N)N)NC(=O)[C@H](CCC(N)=O)NC(=O)[C@@H](NC(=O)[C@H](C)NC(=O)[C@@H]1CSSC[C@H](NC(=O)[C@@H](N)CCCCNC(=O)CC[C@H](NC(=O)CCCCCCCCCCCCCCCCCCC(=O)O)C(=O)O)C(=O)N[C@@H](CC(N)=O)C(=O)N[C@@H]([C@@H](C)O)C(=O)N[C@@H](C)C(=O)N[C@@H]([C@@H](C)O)C(=O)N1)[C@@H](C)O)C(=O)N1CCC[C@H]1C(=O)N[C@@H](CO)C(=O)N[C@@H](CO)C(=O)N[C@H](C(=O)N[C@@H](CC(N)=O)C(=O)N[C@H](C(=O)NCC(=O)N1CCC[C@H]1C(=O)N[C@@H](CCCNC(=N)N)C(=O)N[C@H](C(=O)N[C@@H](Cc1ccc(O)cc1)C(N)=O)[C@@H](C)O)C(C)C)[C@@H](C)O [Example 117] (H-K([γGlu-C20 diacid])CNTATCATQRLAEFLRHSSPNFGAIPSSTNVGPRTY-NH2; disulfide 2-7)	6.3	9		0.376	6.38	0.163	reduces food intake in rats			None of the example compounds at 30 nmol/kg trigger a notable suppression of the calcium level		17.0	17.0	17.0	17.0	17.0
